Experiments:
Test in all cases: Kinase profiling in a biochemical assay panel (mobility shift assays and ELISA), %-inhibition at 1 μM; selectivity entropy
[1] = target: panel of more than 300 wild-type and mutant kinases (313 kinase panel) (Homo sapiens, UniProt Q96RG2)
[2] = target: T1, panel of more than 300 wild-type and mutant kinases (313 kinase panel) (Homo sapiens, UniProt Q8TD19)
T1 sequence (Q8TD19 1-979): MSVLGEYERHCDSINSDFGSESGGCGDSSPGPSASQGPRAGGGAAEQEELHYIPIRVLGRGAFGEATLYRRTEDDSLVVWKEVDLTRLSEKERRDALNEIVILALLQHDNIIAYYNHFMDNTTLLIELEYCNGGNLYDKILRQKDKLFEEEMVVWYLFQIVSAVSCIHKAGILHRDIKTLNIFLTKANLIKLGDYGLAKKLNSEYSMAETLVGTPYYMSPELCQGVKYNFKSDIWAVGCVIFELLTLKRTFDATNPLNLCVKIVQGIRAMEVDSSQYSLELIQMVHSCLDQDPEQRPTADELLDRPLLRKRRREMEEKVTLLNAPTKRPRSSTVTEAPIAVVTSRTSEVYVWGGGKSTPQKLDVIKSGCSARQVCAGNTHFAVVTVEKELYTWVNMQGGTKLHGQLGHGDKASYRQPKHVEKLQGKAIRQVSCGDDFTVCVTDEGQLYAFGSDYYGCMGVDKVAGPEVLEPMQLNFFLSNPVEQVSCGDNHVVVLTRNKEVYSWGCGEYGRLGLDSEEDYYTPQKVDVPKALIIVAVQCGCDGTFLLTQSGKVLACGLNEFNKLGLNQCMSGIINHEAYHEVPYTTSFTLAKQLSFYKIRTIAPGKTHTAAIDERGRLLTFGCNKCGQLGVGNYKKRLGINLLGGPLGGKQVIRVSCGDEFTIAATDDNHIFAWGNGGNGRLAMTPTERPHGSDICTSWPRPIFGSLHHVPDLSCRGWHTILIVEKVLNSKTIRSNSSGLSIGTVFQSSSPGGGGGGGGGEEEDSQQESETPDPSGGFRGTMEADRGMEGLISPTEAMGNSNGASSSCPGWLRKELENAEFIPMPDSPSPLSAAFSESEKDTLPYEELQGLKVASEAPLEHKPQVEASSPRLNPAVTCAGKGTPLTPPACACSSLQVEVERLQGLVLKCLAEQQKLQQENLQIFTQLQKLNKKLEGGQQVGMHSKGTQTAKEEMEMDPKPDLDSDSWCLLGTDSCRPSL

[3] = target: panel of more than 300 wild-type and mutant kinases (313 kinase panel) (Homo sapiens, UniProt Q9P1W9)
[4] = target: T2, panel of more than 300 wild-type and mutant kinases (313 kinase panel) (Homo sapiens, UniProt P43403)
T2 sequence (P43403 1-619): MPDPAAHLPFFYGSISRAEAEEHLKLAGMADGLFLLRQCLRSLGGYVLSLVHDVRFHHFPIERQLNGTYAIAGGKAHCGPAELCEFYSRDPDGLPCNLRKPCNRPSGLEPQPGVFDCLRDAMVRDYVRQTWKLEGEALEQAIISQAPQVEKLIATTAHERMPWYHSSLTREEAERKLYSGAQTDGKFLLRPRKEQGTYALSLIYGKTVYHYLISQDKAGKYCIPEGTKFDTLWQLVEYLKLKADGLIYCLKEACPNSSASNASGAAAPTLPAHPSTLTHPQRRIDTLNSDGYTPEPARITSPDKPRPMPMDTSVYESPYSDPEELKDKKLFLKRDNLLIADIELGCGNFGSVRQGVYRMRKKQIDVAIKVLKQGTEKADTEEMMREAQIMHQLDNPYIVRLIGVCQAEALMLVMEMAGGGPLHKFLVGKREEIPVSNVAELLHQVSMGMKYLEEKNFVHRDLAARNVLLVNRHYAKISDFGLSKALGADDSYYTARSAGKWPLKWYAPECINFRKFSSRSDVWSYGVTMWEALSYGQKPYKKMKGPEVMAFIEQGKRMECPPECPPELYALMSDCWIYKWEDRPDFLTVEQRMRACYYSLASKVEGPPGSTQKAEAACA

[5] = target: T3, panel of more than 300 wild-type and mutant kinases (313 kinase panel) (Homo sapiens, UniProt P51813)
T3 sequence (P51813 1-675): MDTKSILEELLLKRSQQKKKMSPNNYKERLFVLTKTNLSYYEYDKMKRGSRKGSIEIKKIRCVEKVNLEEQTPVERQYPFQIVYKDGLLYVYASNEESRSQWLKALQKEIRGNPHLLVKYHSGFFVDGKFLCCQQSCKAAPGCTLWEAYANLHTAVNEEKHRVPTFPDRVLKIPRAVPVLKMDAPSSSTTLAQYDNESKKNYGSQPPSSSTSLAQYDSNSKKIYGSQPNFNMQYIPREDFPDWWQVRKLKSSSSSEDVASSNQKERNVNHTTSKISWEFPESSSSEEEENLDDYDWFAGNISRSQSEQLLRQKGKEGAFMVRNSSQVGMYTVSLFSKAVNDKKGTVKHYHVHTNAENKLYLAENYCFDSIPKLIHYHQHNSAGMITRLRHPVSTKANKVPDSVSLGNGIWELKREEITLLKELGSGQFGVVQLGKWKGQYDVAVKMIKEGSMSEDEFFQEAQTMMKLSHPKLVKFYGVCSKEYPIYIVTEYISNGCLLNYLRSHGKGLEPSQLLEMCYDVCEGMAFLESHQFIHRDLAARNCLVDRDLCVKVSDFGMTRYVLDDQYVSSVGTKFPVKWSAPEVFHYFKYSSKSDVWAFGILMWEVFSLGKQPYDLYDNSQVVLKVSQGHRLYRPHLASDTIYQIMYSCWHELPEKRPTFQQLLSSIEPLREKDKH

Sequence of panel of more than 300 wild-type and mutant kinases (313 kinase panel) (Homo sapiens, UniProt Q96RG2) (Q96RG2 whole entry, change not shown): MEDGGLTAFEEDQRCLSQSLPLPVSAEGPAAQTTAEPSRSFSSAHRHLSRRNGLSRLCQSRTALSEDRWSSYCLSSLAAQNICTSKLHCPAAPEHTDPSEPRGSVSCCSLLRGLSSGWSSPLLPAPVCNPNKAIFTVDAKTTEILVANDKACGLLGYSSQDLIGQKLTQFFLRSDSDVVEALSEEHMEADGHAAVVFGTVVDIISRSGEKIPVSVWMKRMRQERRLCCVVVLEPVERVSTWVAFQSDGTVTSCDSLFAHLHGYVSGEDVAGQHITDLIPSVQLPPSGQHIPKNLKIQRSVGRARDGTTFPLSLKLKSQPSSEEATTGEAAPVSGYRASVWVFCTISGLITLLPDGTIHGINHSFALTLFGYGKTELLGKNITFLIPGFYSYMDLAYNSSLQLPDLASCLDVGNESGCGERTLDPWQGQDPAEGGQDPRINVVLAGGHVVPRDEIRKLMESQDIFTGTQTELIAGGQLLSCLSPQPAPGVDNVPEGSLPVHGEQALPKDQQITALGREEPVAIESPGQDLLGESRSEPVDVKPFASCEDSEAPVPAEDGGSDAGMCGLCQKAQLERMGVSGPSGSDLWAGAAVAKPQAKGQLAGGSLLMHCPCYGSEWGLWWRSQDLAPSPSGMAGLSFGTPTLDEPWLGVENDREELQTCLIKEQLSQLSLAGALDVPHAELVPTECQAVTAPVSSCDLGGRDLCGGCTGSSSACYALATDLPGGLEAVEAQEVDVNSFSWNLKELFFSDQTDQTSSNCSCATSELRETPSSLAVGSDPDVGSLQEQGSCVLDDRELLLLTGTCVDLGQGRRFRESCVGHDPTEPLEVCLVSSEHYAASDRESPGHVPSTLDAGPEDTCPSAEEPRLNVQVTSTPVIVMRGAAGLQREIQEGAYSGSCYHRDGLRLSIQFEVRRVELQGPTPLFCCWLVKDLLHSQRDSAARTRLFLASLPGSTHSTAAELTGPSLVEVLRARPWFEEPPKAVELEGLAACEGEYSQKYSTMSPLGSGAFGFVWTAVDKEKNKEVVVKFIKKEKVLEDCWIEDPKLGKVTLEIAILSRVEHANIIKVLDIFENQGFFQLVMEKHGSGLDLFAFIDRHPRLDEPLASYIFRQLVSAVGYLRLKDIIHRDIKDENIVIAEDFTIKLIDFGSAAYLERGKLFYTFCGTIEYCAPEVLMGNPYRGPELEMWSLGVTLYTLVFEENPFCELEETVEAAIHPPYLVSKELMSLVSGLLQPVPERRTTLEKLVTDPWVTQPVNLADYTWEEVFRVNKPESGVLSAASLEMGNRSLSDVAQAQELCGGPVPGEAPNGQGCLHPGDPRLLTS

COc1cc(Nc2c(C#N)cnc3cc(OCCCN4CCN(C)CC4)c(OC)cc23)c(Cl)cc1Cl [bosutinib]
%-inhibition of PASK ([1]; kinase PASK, 1 μM): -0.0941% | %-inhibition of NEK9 ([2]; 1 µM): -4.25% | %-inhibition of PIM2 ([3]; kinase PIM2, 1 μM): -12% | %-inhibition of ZAP70 ([4]; kinase ZAP70, compound at 1 μM): 76%

COc1cc2nccc(Oc3ccc(NC(=O)C4(C(=O)Nc5ccc(F)cc5)CC4)cc3)c2cc1OC [cabozantinib]
%-inhibition of PASK ([1]; kinase PASK, 1 μM): -2.16% | %-inhibition, BMX ([5]; kinase BMX, 1 μM compound): 53% | %-inhibition of NEK9 ([2]; kinase NEK9, 1 μM): 1.26% | %-inhibition of PIM2 ([3]; kinase PIM2, 1 μM): -12% | %-inhibition of ZAP70 ([4]; kinase ZAP70, compound at 1 μM): 0.856%

C[C@@H](Oc1cc(-c2cnn(C3CCNCC3)c2)cnc1N)c1c(Cl)ccc(F)c1Cl [crizotinib]
%-inhibition of PASK ([1]; kinase PASK, 1 μM): 1% | %-inhibition of NEK9 ([2]; kinase NEK9, 1 μM): 57% | %-inhibition of PIM2 ([3]; kinase PIM2, 1 μM): -5.28% | %-inhibition of ZAP70 ([4]; kinase ZAP70, compound at 1 μM): 21%

CC(C)(C)c1nc(-c2cccc(NS(=O)(=O)c3c(F)cccc3F)c2F)c(-c2ccnc(N)n2)s1 [dabrafenib]
%-inhibition of PASK ([1]; kinase PASK, 1 μM): 1.12% | %-inhibition, BMX ([5]; kinase BMX, 1 μM compound): 55% | %-inhibition of NEK9 ([2]; kinase NEK9, 1 μM): 101% | %-inhibition of PIM2 ([3]; kinase PIM2, 1 μM): 0.238% | %-inhibition of ZAP70 ([4]; kinase ZAP70, compound at 1 μM): 3.47%

Cc1nc(Nc2ncc(C(=O)Nc3c(C)cccc3Cl)s2)cc(N2CCN(CCO)CC2)n1 [dasatinib]
%-inhibition of PIM2 ([3]; kinase PIM2, 1 μM): 5%

C#Cc1cccc(Nc2ncnc3cc(OCCOC)c(OCCOC)cc23)c1 [erlotinib]
%-inhibition of PASK ([1]; 1 µM): -9% | %-inhibition, BMX ([5]; 1 µM): 17% | %-inhibition of NEK9 ([2]; 1 µM): 7% | %-inhibition of PIM2 ([3]; 1 µM): 9%

CO[C@H]1C[C@@H]2CC[C@@H](C)[C@@](O)(O2)C(=O)C(=O)N2CCCC[C@H]2C(=O)O[C@H]([C@H](C)C[C@@H]2CC[C@@H](OCCO)[C@H](OC)C2)CC(=O)[C@H](C)/C=C(\C)[C@@H](O)[C@@H](OC)C(=O)[C@H](C)C[C@H](C)/C=C/C=C/C=C/1C [everolimus]
%-inhibition of PASK ([1]; kinase PASK, 1 μM): -9% | %-inhibition, BMX ([5]; kinase BMX, 1 μM compound): -5.3% | %-inhibition of NEK9 ([2]; kinase NEK9, 1 μM): -11% | %-inhibition of PIM2 ([3]; kinase PIM2, 1 μM): -7% | %-inhibition of ZAP70 ([4]; kinase ZAP70, compound at 1 μM): -2%

O=S(=O)(c1cccc2cnccc12)N1CCCNCC1 [fasudil]
%-inhibition of PASK ([1]; kinase PASK, 1 μM): 2.25% | %-inhibition, BMX ([5]; kinase BMX, 1 μM compound): -4% | %-inhibition of NEK9 ([2]; kinase NEK9, 1 μM): -3% | %-inhibition of PIM2 ([3]; kinase PIM2, 1 μM): -1.66% | %-inhibition of ZAP70 ([4]; kinase ZAP70, compound at 1 μM): -2%

CS(=O)(=O)CCNCc1ccc(-c2ccc3ncnc(Nc4ccc(OCc5cccc(F)c5)c(Cl)c4)c3c2)o1 [lapatinib]
%-inhibition of PASK ([1]; kinase PASK, 1 μM): -5% | %-inhibition, BMX ([5]; kinase BMX, 1 μM compound): 9% | %-inhibition of PIM2 ([3]; kinase PIM2, 1 μM): 0.254% | %-inhibition of ZAP70 ([4]; kinase ZAP70, compound at 1 μM): 6%

Cc1cn(-c2cc(NC(=O)c3ccc(C)c(Nc4nccc(-c5cccnc5)n4)c3)cc(C(F)(F)F)c2)cn1 [nilotinib]
%-inhibition of PASK ([1]; kinase PASK, 1 μM): -3% | %-inhibition of NEK9 ([2]; kinase NEK9, 1 μM): -21% | %-inhibition of PIM2 ([3]; kinase PIM2, 1 μM): 7% | %-inhibition of ZAP70 ([4]; 1 µM): 2.52%

Cc1ccc(Nc2nccc(N(C)c3ccc4c(C)n(C)nc4c3)n2)cc1S(N)(=O)=O [pazopanib]
%-inhibition of PASK ([1]; kinase PASK, 1 μM): -2.41% | %-inhibition, BMX ([5]; kinase BMX, 1 μM compound): 24% | %-inhibition of NEK9 ([2]; kinase NEK9, 1 μM): 3.59% | %-inhibition of PIM2 ([3]; kinase PIM2, 1 μM): -4% | %-inhibition of ZAP70 ([4]; kinase ZAP70, compound at 1 μM): 39%

Cc1ccc(C(=O)Nc2ccc(CN3CCN(C)CC3)c(C(F)(F)F)c2)cc1C#Cc1cnc2cccnn12 [ponatinib]
%-inhibition of PASK ([1]; kinase PASK, 1 μM): 25% | %-inhibition of NEK9 ([2]; kinase NEK9, 1 μM): 17% | %-inhibition of PIM2 ([3]; kinase PIM2, 1 μM): 3.41% | %-inhibition of ZAP70 ([4]; kinase ZAP70, compound at 1 μM): 5%

CNC(=O)c1cc(Oc2ccc(NC(=O)Nc3ccc(Cl)c(C(F)(F)F)c3)c(F)c2)ccn1 [regorafenib]
%-inhibition of PASK ([1]; kinase PASK, 1 μM): 0.282% | %-inhibition, BMX ([5]; kinase BMX, 1 μM compound): -1.77% | %-inhibition of NEK9 ([2]; kinase NEK9, 1 μM): 2.52% | %-inhibition of PIM2 ([3]; kinase PIM2, 1 μM): -9% | %-inhibition of ZAP70 ([4]; kinase ZAP70, compound at 1 μM): -0.475%

N#CC[C@H](C1CCCC1)n1cc(-c2ncnc3[nH]ccc23)cn1 [ruxolitinib]
%-inhibition of PASK ([1]; kinase PASK, 1 μM): 0.47% | %-inhibition, BMX ([5]; kinase BMX, 1 μM compound): 6.6% | %-inhibition of NEK9 ([2]; kinase NEK9, 1 μM): 8% | %-inhibition of PIM2 ([3]; kinase PIM2, 1 μM): -4% | %-inhibition of ZAP70 ([4]; kinase ZAP70, compound at 1 μM): 2.76%

CO[C@H]1C[C@@H]2CC[C@@H](C)[C@@](O)(O2)C(=O)C(=O)N2CCCC[C@H]2C(=O)O[C@H]([C@H](C)C[C@@H]2CC[C@@H](OC(=O)C(C)(CO)CO)[C@H](OC)C2)CC(=O)[C@H](C)/C=C(\C)[C@@H](O)[C@@H](OC)C(=O)[C@H](C)C[C@H](C)/C=C/C=C/C=C/1C [temsirolimus]
%-inhibition of PASK ([1]; kinase PASK, 1 μM): -8% | %-inhibition, BMX ([5]; kinase BMX, 1 μM compound): -7% | %-inhibition of NEK9 ([2]; kinase NEK9, 1 μM): -8% | %-inhibition of PIM2 ([3]; kinase PIM2, 1 μM): -6% | %-inhibition of ZAP70 ([4]; kinase ZAP70, compound at 1 μM): -2.76%

CC(=O)Nc1cccc(-n2c(=O)n(C3CC3)c(=O)c3c(Nc4ccc(I)cc4F)n(C)c(=O)c(C)c32)c1 [trametinib]
%-inhibition of PASK ([1]; kinase PASK, 1 μM): -0.187% | %-inhibition, BMX ([5]; kinase BMX, 1 μM compound): -3.22% | %-inhibition of NEK9 ([2]; kinase NEK9, 1 μM): -3% | %-inhibition of PIM2 ([3]; kinase PIM2, 1 μM): -4% | %-inhibition of ZAP70 ([4]; kinase ZAP70, compound at 1 μM): -3%

COc1cc2c(Nc3ccc(Br)cc3F)ncnc2cc1OCC1CCN(C)CC1 [vandetanib]
%-inhibition of PASK ([1]; kinase PASK, 1 μM): -4.23% | %-inhibition, BMX ([5]; kinase BMX, 1 μM compound): 18% | %-inhibition of NEK9 ([2]; kinase NEK9, 1 μM): -7% | %-inhibition of PIM2 ([3]; kinase PIM2, 1 μM): -6.49% | %-inhibition of ZAP70 ([4]; kinase ZAP70, compound at 1 μM): 4.47%
